In paper PMC7503500, “A Structure-Activity Relationship Comparison of Imidazodiazepines Binding at Kappa, Mu, and Delta Opioid Receptors and the GABAA Receptor” (Molecules, 2020):
Where “and” joins values, the source holds several entries; their conditions need not be identical. Equal entries are not always repeated. Where two headings read alike, the source gives them in different places.

How the values were obtained:
human KOR = target: T1, human KOR (Homo sapiens, UniProt P41145); assay: cell-based
T1 construct: expressed in transfected cells; host or cells: HEK293T

δ opioid receptor (DOR) = δ opioid receptor (DOR) (Homo sapiens, UniProt P41143); assay: Radioligand competition binding, DOR ([3H]-DADLE), HEK293 cell homogenates; conditions: for inhibition at 10 µM: read-out: DOR % (percent inhibition), at 10,000 nM; for DOR % (percent inhibition): at 10,000 nM
κ opioid receptor (KOR) = κ opioid receptor (KOR) (Homo sapiens, UniProt P41145); assay: Radioligand competition binding, KOR ([3H]-U69593), HEK293 cell homogenates; conditions: for inhibition at 10 µM: read-out: KOR % (percent inhibition), at 10,000 nM; for inhibition at 10 µM / KOR % (percent inhibition): [3H]-U69593; for KOR % (percent inhibition): at 10,000 nM
[1] = test system: synaptic benzodiazepine-sensitive receptors (BZR), GABAAR; assay: 3H-flunitrazepam binding, rat brain homogenate; conditions: for BZR % (percent inhibition): at 10,000 nM; for Ki: read-out: BZR (Ki)
µ opioid receptor (MOR) = µ opioid receptor (MOR) (Homo sapiens, UniProt P35372); assay: Radioligand competition binding, MOR ([3H]-DAMGO), HEK293 cell homogenates; conditions: for inhibition at 10 µM: read-out: MOR % (percent inhibition), at 10,000 nM; for inhibition at 10 µM / MOR % (percent inhibition): [3H]-DAMGO; for MOR % (percent inhibition): at 10,000 nM
activated microglia = test system: activated microglia; design: method as in PMID 32511908; conditions: reversed by KOR antagonist norbinaltorphimine; cited from earlier work
[2] = design: method as in PMID 32511908; conditions: cited from earlier work
[3] = design: method as in PMID 32511908; conditions: both phases; cited from earlier work
[4] = read-out: KOR (Ki), [3H]-U69593, HEK293 homogenates

Compound | inhibition at 10 µM (δ opioid receptor (DOR)) [%] | inhibition at 10 µM (κ opioid receptor (KOR)) [%] | BZR % (percent inhibition) [1] [%] | Ki [1] [µM] | inhibition at 10 µM (µ opioid receptor (MOR)) [%] | MOR % (percent inhibition) (µ opioid receptor (MOR)) [%] | further results
C#Cc1ccc2c(c1)C(c1ccccc1F)=N[C@@H](C)c1c(C(=O)OC(C)(C)C)ncn1-2 [GL-I-30] | 7 | 95 | 96 | 0.177 | 54 |  | Efficacy in comparison to full agonist salvinorin A (human KOR; BRET GαoA recruitment): 100%; EC50 (human KOR; BRET, n = 24, mean and SEM, read-out: EC50, recruitment of GαoA protein to KOR): 0.032 µM and 0.0323 µM; Ki (κ opioid receptor (KOR)): 0.027 µM; Selectivity in respect to BZR binding (κ opioid receptor (KOR); KOR vs BZR Ki): 6.5 fold; Opioid receptor selectivity in comparison to MOR (κ opioid receptor (KOR); KOR vs MOR Ki): 68 fold; Ki (µ opioid receptor (MOR)): 1.85 µM
CCc1noc(-c2ncn3c2[C@@H](C)N=C(c2ccccc2F)c2cc(C4CC4)ccc2-3)n1 [GL-IV-03] |  |  | 65 |  |  | 25 | DOR % (percent inhibition) (δ opioid receptor (DOR)): 67%; Production of nitric oxide (NO) by activated microglia (activated microglia): reduced the production of nitric oxide (NO); KOR % (percent inhibition) (κ opioid receptor (KOR)): 91%; Ki (κ opioid receptor (KOR); [4]): 0.232 µM; Impairment of sensorimotor coordination [2]: without inducing impairment of sensorimotor coordination; Agitation response in the formalin nociception test [3]: alleviated the agitation response in both phases
C#Cc1ccc2c(c1)C(c1ccccn1)=NCc1c(-c3nc(CC)no3)ncn1-2 [MP-III-080] | 0 | 47 | 88 | 0.303 | 0 |  | 
C#Cc1ccc2c(c1)C(c1ccccn1)=NCc1c(-c3nc(C)no3)ncn1-2 [MP-III-085] | 0 | 40 | 82 | 0.357 | 0 |  | 
C#Cc1ccc2c(c1)C(c1ccccc1F)=N[C@H](C)c1c(-c3nc(C)no3)ncn1-2 [MP-IV-004] |  |  | 63 | 1.08 |  | 7 | DOR % (percent inhibition) (δ opioid receptor (DOR)): 10%; KOR % (percent inhibition) (κ opioid receptor (KOR)): 86%; Ki (κ opioid receptor (KOR); [4]): 0.444 µM
C#Cc1ccc2c(c1)C(c1ccccc1F)=N[C@H](C)c1c(-c3nc(C(C)C)no3)ncn1-2 [MP-IV-010] |  |  | 64 | 0.814 |  | 33 | DOR % (percent inhibition) (δ opioid receptor (DOR)): 5%; KOR % (percent inhibition) (κ opioid receptor (KOR)): 94%; Ki (κ opioid receptor (KOR); [4]): 0.145 µM
C#Cc1ccc2c(c1)C(c1ccccc1F)=N[C@H](C)c1c(C(=O)O)ncn1-2 [SH-053-2′F-R-CH3-Acid] | 0 | 16 | 93 | 0.037 | 0 |  | 
C#Cc1ccc2c(c1)C(c1ccccc1F)=N[C@H](C)c1c(C(=O)OCC)ncn1-2 [SH-053-2′F-R-CH3] | 32 | 89 | 85 | 0.379 | 28 |  | Ki (κ opioid receptor (KOR)): 0.24 µM
C#Cc1ccc2c(c1)C(c1ccccc1F)=N[C@@H](C)c1c(C(=O)O)ncn1-2 [SH-053-2′F-S-CH3-Acid] | 18 | 20 | 93 | 0.029 | 0 |  | 
C#Cc1ccc2c(c1)C(c1ccccc1F)=N[C@@H](C)c1c(C(=O)OCC)ncn1-2 [SH-053-2′F-S-CH3] | 36 | 93 | 92 | 0.111 | 7 |  | Ki (κ opioid receptor (KOR)): 0.09 µM
CCOC(=O)c1ncn2c1[C@@H](C)N=C(c1ccccc1F)c1cc(Br)ccc1-2 [SH-I-047] | 0 | 82 | 84 | 0.238 |  | 16 | 
CCOC(=O)c1ncn2c1[C@H](C)N=C(c1ccccc1F)c1cc(Br)ccc1-2 [SH-I-048B] |  |  | 61 | 0.096 |  | 0 | DOR % (percent inhibition) (δ opioid receptor (DOR)): 0%; KOR % (percent inhibition) (κ opioid receptor (KOR)): 95%
Fc1ccccc1C1=NCc2c(-c3cnco3)ncn2-c2ccc(Br)cc21 [SH-I-85] | 33 | 91 | 99 | 0.011 | 16 |  | Ki (κ opioid receptor (KOR)): 0.162 µM
C#Cc1ccc2c(c1)C(c1ccccn1)=NCc1c(C(=O)O)ncn1-2 [SR-II-54] | 1 | 9 | 80 | 0.069 | 8 |  | 
